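Protocol summary: plate cells (96-well), add compound at 5 concentrations, incubate 48 h, interpolate endpoints linearly. Here, GI50 denotes the concentration required for 50% inhibition of growth. The concentration for full growth arrest is given as TGI.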

Common to all, as to assay: DTP human tumour cell line panel, 48 h
Experiment [1] relates to SNB-75 CNS.
For experiment [2], the system named is NCI-H522 lung.
Experiment [3] has as its system RXF 393 renal.
Experiment [4] deals with MDA-MB-435.
Experiment [5] relates to HOP-62 NSCLC.
The subject of experiment [6] is OVCAR-8 ovarian.
Experiment [7] relates to HL-60(TB) leukemia.
Experiment [8] concerns SF-268 CNS.
The test system of experiment [9] is M14 melanoma.
The subject of experiment [10] is A549 NSCLC.

As a reminder, the GI50 is the concentration at which growth is held to half of that of the control. The TGI is the concentration at which net growth stops. Lower therefore signals greater sensitivity of the cells. Consider `CN1CCN(c2nc(-c3csc(-c4cccs4)n3)cc3ccccc23)CC1`, for which the GI50 in experiment [1] is 1.36 µM; in experiment [2], 1.94 µM; in [3], 1.78 µM; in [4] it was 1.73 µM; in experiment [5], 1.81 µM; in [6], 1.89 µM. Further, the GI50 is 2.17 µM in [7], 1.82 µM in experiment [8], 1.87 µM in experiment [9] and 1.76 µM in experiment [10]. The TGI is 2.91 µM in [1]; 3.95 µM in experiment [2]; 3.9 µM in [3]; 3.24 µM in experiment [4]; 3.67 µM in experiment [5]; 3.97 µM in experiment [6]. Also, the TGI in [7] was 4.71 µM; in experiment [8] it was 3.6 µM; in experiment [9], 3.71 µM; in [10], 3.55 µM.

In the case of `CC(=O)/C=C/c1ccc(OCc2ccc(Cl)cc2)cc1`, the GI50 in [1] was 457 µM; in experiment [2] it was 295 µM; in experiment [3], 568 µM; in experiment [4], 228 µM; in experiment [5], more than 1000 µM; in [6], 613 µM. In addition, the GI50 is 405 µM in experiment [7], 670 µM in experiment [8], 559 µM in [9] and more than 1000 µM in experiment [10]. Also, the TGI in experiment [1], in experiment [2], in [3], in experiment [4], in experiment [5] and in experiment [6] was more than 1000 µM throughout. Further, the TGI in experiment [7], in experiment [8], in experiment [9] and in experiment [10] was more than 1000 µM in each case.

For `N#CC(C#N)=C/C=C(\Sc1ccc(F)cc1Cl)c1ccc(Cl)cc1`, the GI50 is 10.3 µM in experiment [1]; 1.93 µM in [2]; 2.94 µM in experiment [3]; 0.35 µM in experiment [4]; 0.904 µM in experiment [5]; 0.601 µM in [6]. Moreover, the GI50 was 0.52 µM in [7], 0.457 µM in experiment [8], 0.433 µM in experiment [9] and 2.22 µM in experiment [10]. The concentration for total growth inhibition (TGI) in [1] is 31 µM; in experiment [2] it was 10.8 µM; in [3] it was more than 100 µM; in experiment [4] it was 1.73 µM; in [5], 3.42 µM; in experiment [6], 6.46 µM. Besides, the TGI was determined as 49.2 µM in [7], 1.9 µM in experiment [8], 2.03 µM in experiment [9] and 12.5 µM in experiment [10].

Take `COc1cc(C)c2sc3ccccc3c(=O)c2c1NCCN(C)C`: the GI50 in [1] is 2.21 µM; in [2], 4.91 µM; in experiment [3], 2.4 µM; in experiment [4], 2.91 µM; in experiment [5] it was 7.1 µM; in experiment [6], 5.44 µM. For the same molecule, the GI50 was 4.68 µM in experiment [7], 8.57 µM in experiment [8], 2.16 µM in experiment [9] and 4.05 µM in experiment [10]. In addition, the TGI was 13.2 µM in experiment [1]; 17.9 µM in [2]; 9.41 µM in [3]; 10.6 µM in experiment [4]; 19.6 µM in [5]; 19.1 µM in [6]. Moreover, the TGI came to 16.3 µM in experiment [7], 22.3 µM in [8], 4.33 µM in experiment [9] and 15.7 µM in [10].

For `CC(=O)OC1=CC2(OC(C)=O)CC(C)(C)C1C1C(=O)C=CC(=O)C12` (stereo not given), the TGI in [1] is more than 100 µM; in [2], more than 52.4 µM; in [3], more than 100 µM; in [4], 53.4 µM; in experiment [5], more than 100 µM; in experiment [6] it was more than 100 µM. Moreover, the total growth inhibition concentration (TGI) in experiment [7], in experiment [8], in experiment [9] and in experiment [10] was more than 100 µM throughout.

Regarding `CC1=Nc2c([nH]c(=S)[nH]c2=O)NC(c2c(Cl)cccc2Cl)C1` (stereo not given), the TGI in [1] came to 10.6 µM; in experiment [2], 7.33 µM; in [3], 9.91 µM; in [4], 2.88 µM; in experiment [5] it was 13.6 µM; in [6], 1.85 µM. Besides, the TGI in experiment [7] came to 2.54 µM; in experiment [8], 3.96 µM; in [9], 6.47 µM; in [10] it was 15 µM.

As to `Cn1cc(C2=C(Nc3ccccc3)C(=O)NC2=O)c2ccccc21`, the GI50 in experiment [1] is more than 25 µM; in experiment [2], 24.6 µM; in experiment [3], more than 25 µM; in [4], more than 25 µM; in experiment [5], more than 25 µM; in experiment [6], more than 25 µM. The GI50 in experiment [7], in experiment [8], in experiment [9] and in experiment [10] was more than 25 µM throughout. For the same molecule, the concentration for total growth inhibition (TGI) in [1], in [2], in experiment [3], in experiment [4], in experiment [5] and in experiment [6] was more than 25 µM in each case. Moreover, the TGI in experiment [7], in [8], in [9] and in [10] was more than 25 µM throughout.

Take `COc1cnc2c(c1)C(=O)c1c-2n(CCCN2CCC(O)CC2)c(=O)c2cc(Cl)ccc12`: the GI50 was 10.4 µM in experiment [1]; 0.11 µM in [2]; 0.347 µM in experiment [3]; 12.9 µM in [4]; 0.0942 µM in experiment [5]; 0.665 µM in [6]. Also, the GI50 is 0.929 µM in [7], 0.211 µM in [8], 0.0914 µM in experiment [9] and 0.48 µM in experiment [10]. For the same molecule, the TGI in [1] was determined as 24.6 µM; in experiment [2], 2.02 µM; in [3] it was 1.72 µM; in experiment [4] it was 25.7 µM; in experiment [5], 17.1 µM; in [6] it was 3.53 µM. Also, the TGI in experiment [7] was 4.32 µM; in experiment [8] it was 2.34 µM; in experiment [9], 1.86 µM; in experiment [10], 2.34 µM.
